Source: patent US20130149399A1, “SKIN TEMPERATURE ELEVATING AGENT, AND COSMETIC COMPOSITION, FOOD AND SUNDRY ARTICLE CONTAINING THE SAME” (SHISEIDO COMPANY ,LTD., priority 2010, published 2013)

Test: Test method of measuring skin temperature when smelling the aroma of the test sample
Assay type: in vivo, human
Settings: females in their 20's, aroma smelled from soaked cotton, chest skin temperature as reference, 25 °C, humidity 45%; for effect of the aroma on the skin temperature of the cheek (change level with aroma minus change level with no aroma): samples 0.05-0.1 mass % in triethyl citrate or ethanol, FIG. 1
Description: The present invention will be explained below in more detail with reference to examples. Test samples were prepared which were a dilution of an extract of Japanese peppermint by triethyl citrate to a concentration of 0.05 mass %, a dilution of an extract of juniper berry by triethyl citrate to a concentration of 0.1 mass %, a dilution of an extract of […] by triethyl citrate to a concentration of 0.05 mass %, a dilution of dihydro-β-ionol by ethanol to a concentration of 0.1 mass %, a dilution of geraniol by ethanol to a concentration of 0.1 mass %, and a dilution of 4-methoxystyrene by ethanol to a concentration of 0.5 mass %, and how the aromas of those test samples influenced a skin temperature was tested. In this example, test subjects were females in their 20's. Five test subjects for the extract of Japanese peppermint, seven test subjects for the extract of juniper berry, three test subjects for the extract of […] test subjects for dihydro-β-ionol, five test subjects for geraniol, and seven test subjects for 4-methoxystyrene participated in the tests. The test content was explained in advance to the test subjects, and the participation in the test was agreed in writing. The tests were carried out in a room at a constant temperature set to 25 ° C. and a constant humidity set to 45%. Skin temperature sensors were attached to a cheek of the test subject, a hand fingertip (middle finger), and a chest, and connected to a temperature monitor to successively measure the skin temperature. […] Skin temperature change levels of a cheek and those of a hand fingertip between when an aroma was smelled and when no aroma was smelled were compared with each other, and an effect of the aroma of the test sample to the skin temperature was evaluated. […] When this value is a positive one, it is determined that a skin temperature is raised and when this value is a negative one, it is determined that a skin temperature is lowered.

| SMILES | effect of the aroma on the skin temperature of the cheek (change level with aroma minus change level with no aroma) | effect of the aroma on the skin temperature of the hand fingertip (change level with aroma minus change level with no aroma) (middle finger, samples 0.05-0.5 mass % in triethyl citrate or ethanol, FIG. 2) |
| --- | --- | --- |
| CC(C)=CCC/C(C)=C/CO [geraniol, Geraniol] | effect of raising the skin temperature of the cheek | – |
| C=Cc1ccc(OC)cc1 [4-methoxystyrene] | – | effect of raising the skin temperature of the hand fingertip |
| CC1=C(CCC(C)O)C(C)(C)CCC1 (stereo not drawn) [dihydro-β-ionol, Dihydro-β-ionol] | effect of raising the skin temperature of the cheek | – |
